From patent US8338565B2, “Macrocyclic compounds for inhibition of tumor necrosis factor alpha” (Ensemble Therapeutics Corporation, priority 2008, dated 2012)
Values joined by “and” are separate entries in the source; they are usually repeats but may differ in a detail not shown here. Equal values may be shown once. Numbered stars: 1 amine (or outer) side, 2 acyl side, 3 side chain; on linkers, the order of the positions; unused ones are H or OH. Bridge positions count the residues as written; N and C are the ends. Square brackets hold non-standard residues; d marks the D form. Peptide text beside a SMILES is read from it. * marks the point of attachment. Tartaroyl(2R,3R-(OAc)2) = CC(=O)O[C@@H](C(=O)[*:1])[C@@H](OC(C)=O)C(=O)[*:2]; dAla(benzothien-2-yl) = N[C@H](Cc1cc2ccccc2s1)C(=O)O; Bip(2'-Me) = Cc1ccccc1-c1ccc(C[C@H](N)C(=O)O)cc1; Phe(4-CF3) = N[C@@H](Cc1ccc(C(F)(F)F)cc1)C(=O)O; Phe(4-COOH) = N[C@@H](Cc1ccc(C(=O)O)cc1)C(=O)O; Phe(2,4-Cl2) = N[C@@H](Cc1ccc(Cl)cc1Cl)C(=O)O; Bip = N[C@@H](Cc1ccc(-c2ccccc2)cc1)C(=O)O; dBip = N[C@H](Cc1ccc(-c2ccccc2)cc1)C(=O)O; dPhe(4-NH2) = Nc1ccc(C[C@@H](N)C(=O)O)cc1; Phe(4-Br) = N[C@@H](Cc1ccc(Br)cc1)C(=O)O; Phe(4-NH2) = Nc1ccc(C[C@H](N)C(=O)O)cc1; dAla(2-furyl) = N[C@H](Cc1ccco1)C(=O)O; Lys(Me2) = CN(C)CCCC[C@H](N)C(=O)O; d(hPhe) = N[C@H](CCc1ccccc1)C(=O)O; d2Thi = N[C@H](Cc1cccs1)C(=O)O; Suc = O=C(CCC(=O)[*:2])[*:1]; Dap = NC[C@H](N)C(=O)O; GABA = NCCCC(=O)O; βAla = NCCC(=O)O; tBu = CC(C)(C)*

biological target: T1, TNFα / TNFα receptor (TNFα R1/Fc) (Homo sapiens, UniProt P01375); assay: Inhibition of binding of TNFα to the TNFα receptor (plate ELISA competition); conditions: Activity (IC50, inhibition of TNFα binding to TNFα R1/Fc), Table 2
T1 construct: purchased R&D Systems
Method: The compounds listed in Table 2 below were assayed for ability to inhibit binding of TNFα to the TNFα receptor (TNFα R1/Fc). The assays were performed as described in the following procedure: TNFα (R&D Systems) was coated on high binding plate wells (Corning 96-well) at a single uniform concentration of 15 nM, 100 μL/well in PBS. The coating proceeded for 30 minutes at 37° C. then 10 minutes at 4° C. The coated plate was washed with PBST, then 250 μL/well of blocking solution (PBST 0.1% BSA, bovine serum albumin) was added and incubation proceeded for 30-45 minutes at room temperature with agitation. The solution phase competition proceeded separately with the dilutions of test compound in PBST (phosphate buffered saline with Tween 20), 2% DMSO in a polypropylene plate (Corning 96-well storage plate) with a single concentration, 8.33 nM of the high affinity receptor for TNFα (R&D Systems). This solution phase incubation proceeded for 30 minutes at room temperature with agitation and was then added to the washed TNFα coated assay plate, 100 μL/well, and was incubated for a further 30 minutes at room temperature with agitation. The assay plate was washed and 100 μL goat anti-human IgG (Fc) HRP labeled antibody in PBST, 13 pM, (KPL Cat#04-10-2) was added to each well. This incubation proceeded for 25-30 minutes at room temperature with agitation. Following this incubation step, the plate was washed and a 100 μL TMB solution (SUREBLUE™ TMB Peroxidase substrate, KPL) was added per well and allowed to stand approximately 3-5 minutes for development. The TMB reaction was stopped with the addition of 0.5N HCl and then the plate was read for absorbance at 450 nm.

T1 sequence (P01375 77-233 limits assumed, species assumed): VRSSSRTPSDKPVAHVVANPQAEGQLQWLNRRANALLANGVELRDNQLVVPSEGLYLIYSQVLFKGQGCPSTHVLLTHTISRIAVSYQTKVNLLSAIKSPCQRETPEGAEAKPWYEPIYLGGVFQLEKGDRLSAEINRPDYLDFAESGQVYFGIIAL

SMILES	IC50 [µM]
O=C1COc2ccc(cc2)C[C@@H](C(=O)O)NC(=O)[C@H](CCc2ccccc2)NC(=O)[C@@H](Cc2ccc(-c3ccncc3)cc2)NC(=O)[C@H](Cc2cccs2)N1 [Compound 658]	< 10
O=C1COc2ccc(cc2)C[C@@H](C(=O)N[C@@H](Cc2ccccc2)C(=O)O)NC(=O)[C@H](CCc2ccccc2)NC(=O)[C@@H](Cc2ccc(-c3ccccc3)cc2)NC(=O)[C@H](Cc2cccs2)N1 [Compound 481]	< 10
O=C1COc2ccc(cc2)C[C@H](C(=O)N[C@@H](Cc2ccccc2)C(=O)O)NC(=O)[C@@H](CCc2ccccc2)NC(=O)[C@H](Cc2ccc(-c3ccccc3)cc2)NC(=O)[C@@H](Cc2cccs2)N1 [Compound 561]	< 10

same assay, conditions: Table 2; read-out: Activity (IC50, inhibition of TNFα binding to TNFα R1/Fc)

SMILES	IC50
O=C1COc2ccc(cc2)C[C@@H](C(=O)O)NC(=O)[C@H](CCc2ccccc2)NC(=O)[C@@H](Cc2ccc(-c3ccccc3)cc2)NC(=O)[C@H](Cc2ccccc2)N1 [Compound 511]	< 10 µM
Cc1ccccc1-c1ccc(C[C@@H]2NC(=O)[C@@H](Cc3cccs3)NC(=O)CCC(=O)Nc3ccc(cc3)C[C@@H](C(=O)O)NC(=O)[C@@H](Cc3ccccc3)NC2=O)cc1 [Compound 95] ([d2Thi][Bip(2'-Me)][dF][Phe(4-NH2)]-OH; linker N-4 via Suc)	30 to 100 µM
O=C(O)CCCNC(=O)[C@@H]1Cc2ccc(cc2)NC(=O)CCC(=O)N[C@H](Cc2ccccc2)C(=O)N[C@@H](Cc2ccc(-c3ccccc3)cc2)C(=O)N[C@H](CCc2ccccc2)C(=O)N1 [Compound 460] ([dF][Bip][d(hPhe)][Phe(4-NH2)][GABA]-OH; linker N-4 via Suc)	> 100 µM
O=C(O)CCCNC(=O)[C@H]1Cc2ccc(cc2)OCC(=O)N[C@@H](Cc2ccncc2)C(=O)N[C@H](Cc2ccc(-c3ccccc3)cc2)C(=O)N[C@@H](CCc2ccccc2)C(=O)N1 [compound 715]	10 to 30 µM and > 100 µM
CC(=O)O[C@H]1C(=O)Nc2ccc(cc2)C[C@H](C(=O)O)NC(=O)[C@@H](CCc2ccccc2)NC(=O)[C@H](Cc2ccc(Cl)cc2Cl)NC(=O)[C@@H](Cc2cccs2)NC(=O)[C@@H]1OC(C)=O [Compound 221] ([d2Thi][Phe(2,4-Cl2)][d(hPhe)][dPhe(4-NH2)]-OH; linker N-4 via Tartaroyl(2R,3R-(OAc)2))	30 to 100 µM
O=C1CCC(=O)N[C@H](Cc2cccs2)C(=O)N[C@H](Cc2ccc(-c3ccccc3)cc2)C(=O)N[C@H](Cc2ccccc2)C(=O)N[C@@H](C(=O)O)Cc2ccc(cc2)N1 [Compound 498] ([d2Thi][dBip][dF][dPhe(4-NH2)]-OH; linker N-4 via Suc)	> 100 µM
CC(C)(C)Oc1ccc(C[C@@H]2NC(=O)COc3ccc(cc3)C[C@@H](C(=O)O)NC(=O)[C@H](CCc3ccccc3)NC(=O)[C@@H](Cc3ccc(-c4ccccc4)cc3)NC2=O)cc1 [Compound 514]	< 10 µM
O=C1COc2ccc(cc2)C[C@@H](C(=O)O)NC(=O)[C@H](CCc2ccccc2)NC(=O)[C@@H](CCc2ccccc2)NC(=O)[C@H](CCc2ccccc2)N1 [Compound 724]	< 10 µM
O=C(O)CCNC(=O)[C@@H]1Cc2ccc(cc2)NC(=O)CCC(=O)N[C@H](Cc2cccs2)C(=O)N[C@@H](Cc2ccc(-c3ccccc3)cc2)C(=O)N[C@H](CCc2ccccc2)C(=O)N1 [Compound 448] ([d2Thi][Bip][d(hPhe)][Phe(4-NH2)][βAla]-OH; linker N-4 via Suc)	10 to 30 µM
CC(C)(C)Oc1ccc(C[C@@H]2NC(=O)[C@@H](Cc3cccs3)NC(=O)CCC(=O)Nc3ccc(cc3)C[C@@H](C(=O)O)NC(=O)[C@@H](Cc3ccccc3)NC2=O)cc1 [Compound 86] ([d2Thi]Y(tBu)[dF][Phe(4-NH2)]-OH; linker N-4 via Suc)	> 100 µM
O=C1CCC(=O)N[C@H](Cc2cccs2)C(=O)N[C@@H](Cc2ccc(Br)cc2)C(=O)N[C@H](Cc2ccco2)C(=O)N[C@@H](C(=O)O)Cc2ccc(cc2)N1 [Compound 159] ([d2Thi][Phe(4-Br)][dAla(2-furyl)][dPhe(4-NH2)]-OH; linker N-4 via Suc)	10 to 30 µM
O=C(O)[C@@H]1Cc2ccc(cc2)NC(=O)[C@H](O)[C@@H](O)C(=O)N[C@H](Cc2cccs2)C(=O)N[C@@H](Cc2ccc(-c3ccccc3)cc2)C(=O)N[C@H](Cc2cccs2)C(=O)N1 [Compound 283]	< 10 µM
COc1ccc(C[C@@H]2NC(=O)[C@@H](Cc3ccc(-c4ccccc4)cc3)NC(=O)[C@H](Cc3ccncc3)NC(=O)COc3ccc(cc3)C[C@@H](C(=O)O)NC2=O)cc1 [Compound 639]	< 10 µM
O=C1CCC(=O)NN(Cc2ccccc2)C(=O)N[C@@H](Cc2ccc(-c3ccccc3)cc2)C(=O)N[C@H](Cc2ccccc2)C(=O)N[C@H](C(=O)O)Cc2ccc(cc2)N1 [Compound 119]	30 to 100 µM
O=C1N[C@@H](C(=O)O)Cc2ccc(cc2)NC(=O)[C@H](O)[C@@H](O)C(=O)N[C@@H](Cc2cccs2)C(=O)N[C@H](Cc2ccc(-c3ccccc3)cc2)C(=O)N[C@H]1Cc1ccccc1 [Compound 279]	> 100 µM
O=C1COc2ccc(cc2)C[C@@H](C(=O)N[C@H](CCc2ccccc2)C(=O)O)NC(=O)[C@H](Cc2c[nH]c3ccccc23)NC(=O)[C@@H](Cc2ccc(-c3ccccc3)cc2)NC(=O)[C@H](Cc2c[nH]c3ccccc23)N1 [Compound 744]	< 10 µM
O=C1CCC(=O)N[C@H](Cc2cc3ccccc3s2)C(=O)N[C@@H](Cc2ccc(C(F)(F)F)cc2)C(=O)N[C@H](Cc2ccccc2)C(=O)N[C@H](C(=O)O)Cc2ccc(cc2)N1 [Compound 164] ([dAla(benzothien-2-yl)][Phe(4-CF3)][dF][Phe(4-NH2)]-OH; linker N-4 via Suc)	30 to 100 µM
O=C(O)[C@@H]1Cc2ccc(cc2)NC(=O)[C@H](O)[C@@H](O)C(=O)N[C@H](CCc2ccccc2)C(=O)N[C@@H](Cc2ccc(-c3ccccc3)cc2)C(=O)N[C@H](Cc2ccccc2)C(=O)N1 [Compound 246]	30 to 100 µM
CC(C)C[C@@H]1NC(=O)[C@H](Cc2ccc(-c3ccccc3)cc2)NC(=O)[C@@H](Cc2cccs2)NC(=O)CCC(=O)Nc2ccc(cc2)C[C@@H](C(=O)O)NC1=O [Compound 54] ([d2Thi][Bip]L[Phe(4-NH2)]-OH; linker N-4 via Suc)	> 100 µM
O=C(O)CNC(=O)[C@@H]1Cc2ccc(cc2)OCC(=O)N[C@@H](Cc2cccs2)C(=O)N[C@H](Cc2ccc(-c3ccccc3)cc2)C(=O)N[C@@H](Cc2ccccc2)C(=O)N1 [Compound 383]	< 10 µM
CC(=O)N[C@@H]1CC(=O)N[C@H](Cc2cccs2)C(=O)N[C@@H](Cc2ccc(-c3ccccc3)cc2)C(=O)N[C@H](Cc2ccccc2)C(=O)N[C@H](C(=O)O)Cc2ccc(cc2)NC1=O [Compound 378]	10 to 30 µM
O=C1CCC(=O)N[C@H](CCc2ccccc2)C(=O)N[C@@H](Cc2ccc(-c3ccccc3)cc2)C(=O)N[C@H](Cc2ccccc2)C(=O)Nc2ccc(cc2)C[C@@H](C(=O)O)N1 [Compound 550]	30 to 100 µM
O=C(O)CCNC(=O)[C@@H]1Cc2ccc(cc2)C(=O)NCCC(=O)N[C@H](CCc2ccccc2)C(=O)N[C@@H](Cc2ccc(-c3ccccc3)cc2)C(=O)N[C@H](Cc2ccccc2)C(=O)N1 [Compound 420] ([βAla][d(hPhe)][Bip][dF][Phe(4-COOH)][βAla]-OH; lactam N-5)	> 100 µM
O=C1COc2ccc(cc2)C[C@@H](C(=O)O)NC(=O)[C@H](CCc2ccccc2)NC(=O)[C@@H](Cc2ccc(-c3ccccc3)cc2)NC(=O)[C@H](Cc2ccc(-c3ccc(Cl)cc3)cc2)N1 [Compound 702]	< 10 µM
O=C1COc2ccc(cc2)C[C@@H](C(=O)O)NC(=O)[C@H](Cc2ccccc2)NC(=O)[C@H](Cc2ccc(F)cc2)NC(=O)[C@H](Cc2cccs2)N1 [Compound 398]	< 10 µM
O=C(O)CN(Cc1ccccc1)C(=O)[C@@H]1Cc2ccc(cc2)OCC(=O)N[C@@H](Cc2cccs2)C(=O)N[C@@H](Cc2ccc(-c3ccccc3)cc2)C(=O)N[C@@H](Cc2ccccc2)C(=O)N1 [Compound 340]	< 10 µM
O=C1COc2ccc(cc2)C[C@@H](C(=O)NC2(C(=O)O)CC2)NC(=O)[C@H](CCc2ccccc2)NC(=O)[C@@H](Cc2ccc(-c3ccccc3)cc2)NC(=O)[C@H](Cc2cccs2)N1 [Compound 478]	< 10 µM
N[C@H]1CNC(=O)c2ccc(cc2)C[C@@H](C(=O)O)NC(=O)[C@@H](Cc2ccccc2)NC(=O)[C@H](Cc2ccc(-c3ccccc3)cc2)NC(=O)[C@@H](CCc2ccccc2)NC1=O [Compound 265] (H-[Dap][d(hPhe)][Bip][dF][Phe(4-COOH)]-OH; lactam 1-5)	> 100 µM
O=C1COc2ccc(cc2)C[C@@H](C(=O)N[C@H](CCc2ccccc2)C(=O)O)NC(=O)[C@H](CCc2ccccc2)NC(=O)[C@@H](Cc2ccc(-c3ccccc3)cc2)NC(=O)[C@H](Cc2ccc(-c3ccncc3)cc2)N1 [Compound 624]	< 10 µM
CN(C)CCCC[C@@H]1NC(=O)[C@@H](Cc2cccs2)NC(=O)CCC(=O)Nc2ccc(cc2)C[C@@H](C(=O)O)NC(=O)[C@@H](Cc2ccccc2)NC1=O [Compound 203] ([d2Thi][Lys(Me2)][dF][Phe(4-NH2)]-OH; linker N-4 via Suc)	> 100 µM
